Source: patent EP0246774A1, “Chemical compounds” (SMITH KLINE & FRENCH LABORATORIES LIMITED, priority 1986, dated 1987)

tested on: histamine stimulated gastric acid secretion; assay: Rat lumen perfused stomach, histamine stimulated gastric acid secretion (modified Ghosh and Schild procedure); type: in vivo; details: intravenous administration
Text: A. Rat : Lumen perfused stomach (histamine stimulated gastric acid secretion).
Using a modification of the procedure described by Ghosh and Schild (Br. J. Pharmacology, 13, 54, 1958), ED50 values after intravenous administration were obtained as follows: […]

| Structure (SMILES) | ED50 [µmol/kg] |
| --- | --- |
| COc1cc2[nH]c([S+]([O-])Cc3nccc(N4CCOCC4)c3F)nc2cc1C (stereo not shown) [Example 14, 5-methyl-6-methoxy-2-(4-morpholino-3-fluoro-2-pyridylmethylsulphinyl)-(lH)-benzimidazole] | 1.51 |
| COc1ccc2[nH]c([S+]([O-])Cc3nccc(N4CCOCC4)c3F)nc2c1 (stereo not shown) [Example 2, 5-methoxy-2-(4-morpholino-3-fluoro-2-pyridylmethylsulphinyl)-(lH)-benzimidazole] | 0.7 |

same assay, conditions: intravenous administration, dose not given

| Structure (SMILES) | % inhibition at µ/kg [%] |
| --- | --- |
| COc1ccc2[nH]c([S+]([O-])Cc3cc(N(C)C)c(F)cn3)nc2c1 (stereo not shown) [Example 8, 5-methoxy-2-(4-dimethylamino-5-fluoro-2-pyridylmethylsulphinyl)-(1H)-benzimidazole] | 37 |
| COc1ccc2[nH]c([S+]([O-])Cc3cc(N4CCOCC4)c(F)cn3)nc2c1 (stereo not shown) [Example 4, 5-methoxy-2-(4-morpholino-5-fluoro-2-pyridvlmethylsulphinyl)-(lH)-benzimidazole] | 51 |
| COc1cc2nc([S+]([O-])Cc3nccc(N(C)C)c3F)[nH]c2cc1OC (stereo not shown) [Example 16, 5,6-dimethoxy-2-(4-dimethylamino-3-fluoro-2-pyridylmethylsulphinyl)-(lH)-benzimidazole] | 46 |
| COc1ccc2[nH]c([S+]([O-])Cc3nccc(N(C)C)c3F)nc2c1 (stereo not shown) [Example 6, 5-methoxy-2-(4-dimethylamino-3-fluoro-2-pyridylmethylsulphinyl)-(1H)-benzimidazole] | 26 |
| COc1cc2nc([S+]([O-])Cc3nccc(N4CCOCC4)c3F)[nH]c2cc1OC (stereo not shown) [Example 12, 5,6-dimethoxy-2-(4-morpholino-3-fluoro-2-pyridylmethylsulphinvl)-(lH)-benzimidazole] | 33 |
